# In patent US20230000797A1, “COMPOSITIONS AND METHODS FOR TREATING MOTOR DISORDERS” (ARIZONA BOARD OF REGENTS ON BEHALF OF THE UNIVERSITY OF …, priority 2015, published 2023):
# Entries after “also recorded” stand apart in the source; their conditions may differ.
# Assays:
# striatal DA content = test: Electrochemical detection (HPLC-EC) of striatal DA content; format: in vivo, rat
# Description: Measurement of dopamine content: Coronal brain slices were collected and 2 mm steel biopsy punches were used to sample striatal tissue. Samples from left and right hemispheres were collected and immediately flash frozen on an aluminum pan at −70° C., as published (Flores et al., 2014). Samples massed at 2.5±0.5 mg and were then homogenized in dilute perchloric acid. High performance liquid chromatography with electrochemical detection (HPLC-EC) was used to quantify DA.
# patients with PD = test: Low-dose ketamine infusion in PD patient case studies (retrospective chart review); format: in vivo, human
# Description: We report on five cases of low-dose ketamine infusion in patients with PD identified by a retrospective chart review (Table 1). Ketamine was indicated for a variety of co-morbid conditions. The level of documentation of PD and LID symptoms pre and post-infusion was variable, but in many cases included standardized clinical rating scales collected by Movement Disorder specialists. […] Patients were treated in the intensive care unit using a protocol developed by one of the authors (ME) for treatment of intractable headache that specified titration of ketamine to a target rate of 0.15 mg/kg/hr for a 72 hr period.
# [1] = tested on: unilaterally 6-hydroxydopamine (6-OHDA)-lesioned PD rats; test: Development of LID under once-weekly 10-hour infusion paradigm (LAO AIMs); format: in vivo, rat; conditions: n=9 per group; for animals that did not develop any dyskinesia or only very subtle dyskinesia: 6 and 12 mg/kg L-DOPA periods
# Description: Unilaterally 6-hydroxydopamine (6-OHDA)-lesioned PD rats were injected daily with L-DOPA (days 0-13: 6 mg/kg; days 14-28: 12 mg/kg; i.p.) to induce dyskinesia and tested for limb, axial and oral (LAO) abnormal involuntary movements (AIMs) twice a week for 3 hours by blinded investigators.
# [2] = tested on: unilaterally 6-OHDA-lesioned LID rats; test: L-DOPA-induced AIMs in the preclinical rat LID model (10 hr ketamine 'infusion' paradigm or acute injection); conditions: cohort #1; for L-DOPA-induced contralateral locomotor behavior / ipsiversive turning behavior (worsening of the Parkinsonism): all tested doses; for L-DOPA-induced contralateral locomotor behavior: 10 hr 'infusion'; for ipsiversive turning behavior (worsening of the Parkinsonism): in the presence of L-DOPA
# [3] = tested on: awake and behaving naive rats; test: Local-field activity recordings in motor cortex (M1) and dorsolateral striatum (DLS), naive rats; format: in vivo, rat; conditions: 20 mg/kg, 5 i.p. injections every 2 hours
# Description: Using the 10-hour racemic ketamine paradigm (5 i.p. injections every 2 hours), simultaneous local-field activity in multiple brain structures in two awake and behaving naive rats was measured. Recordings were acquired from a 64 channel fixed electrode array. Average response across 2 animals and 5 sessions was obtained.
# [4] = tested on: unilateral 6-hydroxydopamine (6-OHDA)-lesioned rats; test: Local-field activity recordings in M1 and DLS, rodent Parkinson's disease model; format: in vivo, rat; conditions: 20 mg/kg, 5 i.p. injections every 2 hours
# Description: Using a 10-hour racemic ketamine paradigm (5 i.p. injections every 2 hours), simultaneous measurement of local-field activity in multiple brain structures in three awake and behaving unilateral 6-hydroxydopamine (6-OHDA)-lesioned rats, a common model of Parkinson's disease. Recordings were acquired from a 64 channel fixed electrode array. Average response across 3 animals. Power spectrogram from a 10 hour session created by averaging spectra acquired. Vertical lines indicate ketamine injection times.
# [5] = tested on: tyrosine hydroxylase (TH); test: Semi-quantitative western analysis of striatal tyrosine hydroxylase expression; format: in vivo, rat; conditions: unilateral lesion; TH normalized to β-actin; n=15
# Description: Western analysis of tyrosine hydroxylase (TH) content: After the tissue punch, described above, the remaining striata from left and right hemispheres were immediately flash frozen and stored at —70 ° C. Total protein was prepared and semi-quantitative western analysis was conducted as described (Flores et al., 2014; Yue et al., 2014) with 3 modifications. 30 μg of protein/sample was loaded and analyzed on the same blot. Secondary antibody dilution for β-actin: 1:10,000. Images were analyzed with the G:Box XR5 Chemi system (Syngene, Frederick, Md.) using GeneSys v. 1.4.0.0.
# [6] = DLS and M1, after each injection
compound,measurement,setting,value
"CNC1(c2ccccc2Cl)CCCCC1=O (racemic) [ketamine, (RS)-2-(2-Chlorophenyl)-2-(methylamino)cyclohexanone]",striatal [DA],"striatal DA content; acute i.p. 20 mg/kg vs. saline, 30 min before euthanasia",unchanged
same,UPDRS Dyskinesia score (sum of items 32-34),"patients with PD; case #1, 72 hr low-dose ketamine infusion",reduced
same,dyskinesia,"patients with PD; case #1, at second infusion 3 years later despite increase in L-DOPA dose",free of dyskinesia
same,dyskinesia,"patients with PD; case #1, during and after the infusion, carbidopa/L-DOPA dosages unchanged",improved markedly
same,severe tremor,"patients with PD; case #1, during second infusion, tremor had returned 3 weeks later",resolved acutely
same,% dyskinesia on time,"patients with PD; case #1, patient diary, 72 hr low-dose ketamine infusion",reduced
same,LID,"patients with PD; case #1, weeks 2-4 post-K",completely resolved
same,dyskinesia,"patients with PD; case #2, low-dose ketamine infusion",dramatic reduction
same,depression,patients with PD; case #3,dramatically improved
same,motor symptoms,"patients with PD; case #3, during the infusion",acutely improved
same,dyskinesia,"patients with PD; case #3, following the infusion",completely subsided
same,headache,patients with PD; case #4,improved
same,effect on motor symptoms,patients with PD; cases #4 and 5 (STN DBS-treated),little effect
same,tolerability and safety,patients with PD; five PD case reports overall,excellent tolerability and safety
same,reduction of mean LAO AIMs scores,"[1]; 10-hours infusion paradigm once a week, daily L-DOPA 6 then 12 mg/kg i.p.",50%
same,animals that did not develop any dyskinesia or only very subtle dyskinesia,[1],4 of 9
same,change in the already-reduced AIMs score,[2]; 10 mg/kg ketamine-'infusion' given after the other treatments (test for sensitization),No change
same,persistent reduction of AIMs scores lasted (post-injection),[2]; 20 mg/kg ketamine-'infusion',at least 55 days
same,L-DOPA-induced contralateral locomotor behavior,[2],did not significantly change
same,L-DOPA-induced contralateral locomotor behavior,[2]; listed as Ketamine,did not have a significant effect
same,ipsiversive turning behavior (worsening of the Parkinsonism),[2],did not acutely induce
same,ipsiversive turning behavior (worsening of the Parkinsonism),[2]; listed as Ketamine,did not induce ipsilateral rotations
same,anti-dyskinetic effect (LID / AIMs),"[2]; low-dose ketamine given for a 10 hr period, 5-20 mg/kg",dose-dependent long-term anti-dyskinetic effect; also recorded: Long-term dose-dependent reduction
same,"LAO-AIMs score, pre-K (20 mg/kg) vs last testing session","[2]; n=5, p<0.05",significantly reduced
same,coherence in the HFO frequency band,[3]; M1-DLS,increased
same,high-frequency activity (120-140 Hz),"[3]; M1 and DLS, after each injection",clear increase
same,correlation (r) of coherence in HFO and beta bands,[3]; n=5 sessions,−0.65
same,coherence in the beta band,[3]; with successive injections,decreased
same,gamma band activity (40-60 Hz),[4]; [6],clear increase
same,high-frequency activity (120-140 Hz),[4]; [6],clear increase
same,beta-gamma cross-frequency coupling (CFC) in the DLS,"[4]; following each injection, n=15 sessions across 3 animals",reduced
"NCCc1cc(O)c(O)cc1O [6-OHDA, 6-hydroxydopamine]",reduction of striatal DA content in the lesioned side,"striatal DA content; unilateral lesion, lesioned vs unlesioned side",> 95%
same,reduction of striatal TH expression in the lesioned side,[5],87%
CN[C@@]1(c2ccccc2Cl)CCCCC1=O [R-ketamine],animals that did not develop any dyskinesia or only very subtle dyskinesia,[1],1
NC12CC3CC(CC(C3)C1)C2 [amantadine],LID,"patients with PD; case #2, prior treatment, 200 mg daily",failed to improve
